Assay results published in patent publication US20170304317A1, “DIETARY S[…] MUSCLE GROWTH AND STRENGTH” (priority 2015, published 2017).

Columns and labels:
[1] = cited from earlier work
[2] = Bioavailability / half-life of 19 Nor-DHEA forms; type: in vivo; details: compared with regular 19 Nor-DHEA
[3] = regular (non-esterified) 19 Nor-DHEA; cited from earlier work
[4] = via conversion to 4-androstenediol; stated as well known; cited from earlier work

C[C@]12CC[C@H](O)CC1=CC[C@@H]1[C@@H]2CC[C@]2(C)C(=O)CC[C@@H]12 [DHEA, dehydroepiandrosterone]
conversion rate to testosterone ([1]; stated as well known): ~1%

CCCCCCC(=O)O[C@@H]1C=C2CC[C@@H]3[C@H](CC[C@]4(C)C(=O)CC[C@@H]34)[C@H]2CC1 [enanthated 19 Nor-DHEA, 3b-enanthoxy-19-nor-androst-4-ene-17-one]
bioavailability [2]: improved bioavailability

C[C@]12CC[C@H]3[C@@H](CC=C4C[C@@H](O)CC[C@@H]43)[C@@H]1CCC2=O [19 Nor-DHEA]
half-life [3]: very short half-life

C[C@]12CC[C@H](O)C=C1CC[C@@H]1[C@@H]2CC[C@]2(C)C(=O)CC[C@@H]12 [4-DHEA]
anabolic potency compared with regular DHEA [4]: more than two times greater

C[C@]12C=CC(O)CC1CC[C@@H]1[C@@H]2CC[C@]2(C)C(=O)CC[C@@H]12 (some centres unmarked) [1-DHEA]
conversion rate to 1-testosterone ([1]; stated as generally known): less than 2%
